Data published in patent US7989462B2, “4-arylamin-or-4-heteroarylamino-quinazolines and analogs as activators of caspases and inducers of apoptosis and the use thereof” (Myrexis, Inc., priority 2003, dated 2011).

Tested on: T-47D
Experiment: Caspase cascade activation in T-47D solid tumor cells (fluorogenic N-(Ac-DEVD)-N'-ethoxycarbonyl-R110 substrate)
Assay type: cell-based, Human
Settings: T-47D (24 hr); for EC50: Homo sapiens, T47D, read-out: Caspase Potency EC50; for Caspase Activity Ratio: ratio of net RFU of test compound to that of control samples
Protocol: Human breast cancer cell lines T-47D and DLD-1 were grown according to media component mixtures designated by American Type Culture Collection+10% FCS (Invitrogen Corporation), in a 5% CO2-95% humidity incubator at 37° C. T-47D and DLD-1 cells were maintained at a cell density between 50 and 80% confluency at a cell density of 0.1 to 0.6×10^6 cells/mL. Cells were harvested at 600×g and resuspended at 0.65×10^6 cells/mL into appropriate media+10% FCS. An aliquot of 22.5 μL of cells was added to a well of a 384-well microtiter plate containing 2.5 μL of a 10% DMSO in RPMI-1640 media solution containing 0.16 to 100 μM of (2-chloro-quinazolin-4-yl)-(4-dimethylaminophenyl)-methylamine or other test compound (0.016 to 10 μM final). An aliquot of 22.5 μL of cells was added to a well of a 384-well microtiter plate containing 2.5 μL of a 10% DMSO in RPMI-1640 media solution without test compound as the control sample. […] After incubation, the samples were removed from the incubator and 25 μL of a solution containing 14 μM of N-(Ac-DEVD)-N′-ethoxycarbonyl-R110 fluorogenic substrate (Cytovia, Inc.; WO99/18856), 20% sucrose (Sigma), 20 mM DTT (Sigma), 200 mM NaCl (Sigma), 40 mM Na PIPES buffer pH 7.2 (Sigma), and 500 μg/mL lysolecithin (Calbiochem) was added. The samples were mixed by agitation and incubated at room temperature. Using a fluorescent plate reader (Model SPECTRAfluor Plus, Tecan), an initial reading (T=0) was made approximately 1-2 min after addition of the substrate solution, employing excitation at 485 nm and emission at 530 nm, to determine the background fluorescence of the control sample. After the 3 h incubation, the samples were read for fluorescence as above (T=3 h).
The Relative Fluorescence Unit values (RFU) were used to calculate the sample readings as follows: RFU(T=3h)−Control RFU(T=0)=Net RFU(T=3h)
The activity of caspase cascade activation was determined by the ratio of the net RFU value for (2-chloro-quinazolin-4-yl)-(4-dimethylaminophenyl)-methylamine or other test compounds to that of control samples. The EC50 (nM) was determined by a sigmoidal dose-response calculation (Prism 3.0, GraphPad Software Inc.).

Row | Structure (SMILES) | EC50 [nM] | Caspase Activity Ratio
1 | Cc1nc(N(C)c2ccc(NC(N)=O)cc2)c2ccccc2n1 [Example 5, (2-Methyl-quinazolin-4-yl)-(4-ureido-phenyl)-methylamine] | 32 | 9.3
2 | COc1ccc(N(C)c2nc(N(C)C)nc3ccc([N+](=O)[O-])cc23)cc1 [Example 14, (2-Dimethylamino-6-nitroquinazolin-4-yl)-(4-methoxyphenyl)-methylamine] | 2360 | 4.2
3 | CNc1nc(N(C)c2ccc(OC)cc2)c2cc(N)ccc2n1 [Example 19, (6-Amino-2-methylamino-quinazolin-4-yl)-(4-methoxyphenyl)-methylamine] | 214 | 4.3
4 | Cc1nc(N(C)c2ccc(N(C)C)cc2)c2cc([N+](=O)[O-])ccc2n1 [Example 10, (2-Methyl-6-nitroquinazolin-4-yl)-(4-dimethylaminophenyl)-methylamine] | 979 | 2.6
5 | Cc1nc(N(C)c2ccc(N(C)C)cc2)c2cc(N)ccc2n1 [Example 12, (6-Amino-2-methyl-quinazolin-4-yl)-(4-dimethylaminophenyl)-methylamine] | 33 | 3.8
6 | COc1ccc(N(C)c2nc(Cl)nc3ccc([N+](=O)[O-])cc23)cc1 [Example 11, (2-Chloro-6-nitroquinazolin-4-yl)-(4-methoxyphenyl)-methylamine] | 5080 | 4.0
7 | COc1ccc(Nc2ncnc3ccccc23)cc1OC [Example 35, (3,4-Dimethoxy-phenyl)-(quinazolin-4-yl)-amine] | > 10000 | 1.0
8 | COC(=O)Nc1ccc(N(C)c2nc(C)nc3ccccc23)cc1 [Example 4, (2-Methyl-quinazolin-4-yl)-(4-methoxycarbonylamino-phenyl)-methylamine] | 73 | 8.5
9 | CC(=O)N(C)c1ccc(N(C)c2nc(C)nc3ccccc23)cc1 [Example 6, (2-Methyl-quinazolin-4-yl)-(N-methyl-4-acetamido-phenyl)-methylamine] | 210 | 9.2
10 | CNc1ccc(N(C)c2nc(C)nc3ccccc23)cc1 [Example 7, (2-Methyl-quinazolin-4-yl)-(4-methylamino-phenyl)-methylamine] | 18 | 3.4
11 | CNc1nc(N(C)c2ccc(N(C)C)cc2)c2ccccc2n1 [Example 15, (2-Methylamino-quinazolin-4-yl)-(4-dimethylaminophenyl)-methylamine] | 39 | 3.9
12 | CN(C)c1ccc(N(C)c2nc(Cl)nc3ccccc23)cc1 [Example 13, (2-Chloro-quinazolin-4-yl)-(4-dimethylaminophenyl)-methylamine] | 4 | 4.2
13 | COc1ccc(N(C)c2nc(C)nc3ccccc23)cc1OC [Example 25, (3,4-Dimethoxy-phenyl)-(2-methyl-quinazolin-4-yl)-methylamine] | 9 | 10.2
14 | COc1ccc(N(C)c2nc(N(C)C)nc3ccc(N)cc23)cc1 [Example 18, (6-Amino-2-dimethylamino-quinazolin-4-yl)-(4-methoxyphenyl)-methylamine] | 221 | 4.7
15 | CC(=O)N(C)c1nc(N(C)c2ccc(N(C)C)cc2)c2ccccc2n1 [Example 16, [2-(N-Methyl-acetamido)-quinazolin-4-yl]-(4-dimethylaminophenyl)-methylamine] | 14 | 2.4
16 | COc1ccc(N(C)c2nc(NCc3ccccc3)nc3ccccc23)cc1 [Example 3, (2-Benzylamino-quinazolin-4-yl)-(4-methoxyphenyl)-methylamine] | 75 | 8.2
17 | COC(=O)N(C)c1ccc(N(C)c2nc(C)nc3ccccc23)cc1 [Example 8, (2-Methyl-quinazolin-4-yl)-[4-(N-methyl-methoxycarbonylamino)-phenyl]-methylamine] | 558 | 8.0
18 | CSc1ccc(N(C)c2nc(C)nc3ccccc23)cc1 [Example 21, (4-Methylthio-phenyl)-(2-methyl-quinazolin-4-yl)-methylamine] | 4 | 7.5
19 | COc1ccc(Nc2nc(C)nc3ccccc23)cc1OC [Example 24, (3,4-Dimethoxy-phenyl)-(2-methyl-quinazolin-4-yl)-amine] | > 10000 | 1.3
20 | CC(=O)Nc1ccc(N(C)c2nc(C)nc3ccccc23)cc1 [Example 1, (4-Acetamido-phenyl)-(2-methyl-quinazolin-4-yl)-methylamine] | 47 | 8.1
21 | Cc1nc(Nc2ccc(N(C)C)cc2)c2ccccc2n1 [Example 22, (4-Dimethylamino-phenyl)-(2-methyl-quinazolin-4-yl)-amine] | 2860 | 8.7
22 | COc1c(Br)cc(N(C)c2nc(C)nc3cc([N+](=O)[O-])ccc23)cc1Br [Example 2, (3,5-Dibromo-4-methoxyphenyl)-(2-methyl-7-nitroquinazolin-4-yl)-methylamine] | > 10000 | 1.1

Second part, led by results:

Row | EC50 [nM] | Structure (SMILES) | Caspase Activity Ratio
23 | 1870 | COc1ccc(N(C)c2nc(C)nc3ccc([N+](=O)[O-])cc23)cc1OC [Example 36, (3,4-Dimethoxy-phenyl)-(2-methyl-6-nitro-quinazolin-4-yl)-methylamine] | 4.0
24 | 68 | COc1ccc(N(C)c2nc(NN)nc3ccccc23)cc1 [Example 32, (2-Hydrazinyl-quinazolin-4-yl)-(4-methoxy-phenyl)-methylamine] | 7.4
25 | 7 | COc1ccc(N(C)c2nc(N(C)C(C)=O)nc3ccccc23)cc1 [Example 28, (4-Methoxy-phenyl)-(2-N-methylacetamido-quinazolin-4-yl)-methylamine] | 4.0
26 | 34 | COC(=O)N(C)c1nc(N(C)c2ccc(OC)cc2)c2ccccc2n1 [Example 29, (4-Methoxy-phenyl)-(2-N-methyl-methoxycarbonylamino-quinazolin-4-yl)-methylamine] | 9.6
27 | 293 | COC(=O)Nc1ccc2nc(C)nc(N(C)c3ccc(OC)cc3)c2c1 [Example 33, (6-methoxycarbonylamino-2-methyl-quinazolin-4-yl)-(4-methoxy-phenyl)-methylamine] | 6.7
28 | 796 | COc1ccc(N(C)c2nc(C)nc3ccc(NC(C)=O)cc23)cc1 [Example 31, (6-Acetamido-2-methyl-quinazolin-4-yl)-(4-methoxy-phenyl)-methylamine] | 3.2
29 | 290 | COc1ccc(N(C)c2nc(C)nc3ccc(N(C)C(C)=O)cc23)cc1 [Example 40, (6-N-methyl-acetamido-2-methyl-quinazolin-4-yl)-(4-methoxy-phenyl)-methylamine] | 2.7
30 | > 10000 | Cc1nc(Nc2ccc(N(C)C)nc2)c2ccccc2n1 [Example 26, (2-Dimethylamino-pyridine-5-yl)-(2-methyl-quinazolin-4-yl)-amine] | 1.3
31 | > 10000 | COc1ccc(Nc2nc(C)nc3ccc([N+](=O)[O-])cc23)cc1OC [Example 34, (3,4-Dimethoxy-phenyl)-(2-methyl-6-nitro-quinazolin-4-yl)-amine] | 1.1
32 | 27 | COc1ccc(N(C)c2nc(NC(C)=O)nc3ccccc23)cc1 [Example 41, (2-Acetamido-quinazolin-4-yl)-(4-methoxy-phenyl)-methylamine] | 3.5
33 | 382 | COc1ccc(N(C)c2nc(C)nc3ccc(N(C)C)cc23)cc1 [Example 30, (6-Dimethylamino-2-methyl-quinazolin-4-yl)-(4-methoxy-phenyl)-methylamine] | 6.4
34 | > 10000 | COc1cc(Nc2nc(C)nc3ccccc23)cc(OC)c1OC [Example 38, (2-Methyl-quinazolin-4-yl)-(3,4,5-trimethoxy-phenyl)-amine] | 0.9
35 | 14 | Cc1nc(N(C)c2ccc(N(C)C)nc2)c2ccccc2n1 [Example 27, (2-Dimethylamino-pyridine-5-yl)-(2-methyl-quinazolin-4-yl)-methylamine] | 9.0
